Laboratory results as given in the SangsterLogP compilation.

Assay: not given
Conditions: not given

Row | SMILES | logP
1 | CCN(CC)Cc1cccc(C(=O)Oc2c(C)cccc2C)c1 | 2.99
2 | Cc1cccc(C)c1OC(=O)c1ccc(CN2CCCCC2)cc1 | 3.5
3 | Cc1cccc(C)c1NC(=O)c1ccc(CN2CCOCC2)cc1 | 1.76
4 | Cc1cccc(C)c1OC(=O)c1cccc(CN2CCCC2)c1 | 3.18
5 | Cc1cccc(C)c1OC(=O)c1ccccc1CN1CCCC1 | 3.09
6 | Cc1cccc(C)c1OCc1ccccc1CN1CCOCC1 | 4.16
7 | Cc1cccc(C)c1OC(=O)c1ccc(CN2CCCC2)cc1 | 3.2

Assay: method code SF-AS, from DOI: 10.1002/qsar.19880070104
Conditions: pH 7.4

Row | SMILES | logD
8 | Cc1cccc(C)c1NC(=O)c1ccccc1CN1CCOCC1 | 2.46
9 | Cc1cccc(C)c1OC(=O)c1cccc(CN2CCOCC2)c1 | 3.91
10 | Cc1cccc(C)c1NC(=O)OCc1cccc(CN2CCOCC2)c1 | 1.85
11 | Cc1cccc(C)c1OCc1cccc(CN2CCOCC2)c1 | 3.74
12 | Cc1cccc(C)c1OC(=O)c1ccc(CN2CCOCC2)cc1 | 3.92
13 | Cc1cccc(C)c1OC(=O)NCc1ccccc1CN1CCOCC1 | 3.54
14 | Cc1cccc(C)c1NC(=O)OCc1ccccc1CN1CCOCC1 | 2.8
15 | Cc1cccc(C)c1OC(=O)NCc1ccc(CN2CCOCC2)cc1 | 2.7
16 | Cc1cccc(C)c1OC(=O)NCc1cccc(CN2CCOCC2)c1 | 2.91
17 | Cc1cccc(C)c1OC(=O)c1ccccc1CN1CCOCC1 | 3.48
18 | Cc1cccc(C)c1OC(=O)OCc1cccc(CN2CCOCC2)c1 | 3.47
19 | Cc1cccc(C)c1OCc1ccc(CN2CCOCC2)cc1 | 3.76
20 | Cc1cccc(C)c1NC(=O)OCc1ccc(CN2CCOCC2)cc1 | 2.2
21 | Cc1cccc(C)c1OC(=O)OCc1ccc(CN2CCOCC2)cc1 | 3.34
